Results reported in ChEMBL document CHEMBL4024707, “Using gene expression database to uncover biology functions of 1,4-disubstituted 1,2,3-triazole analogues synthesized via a copper (I)-catalyzed reaction” (Eur J Med Chem, 2017).
Activity calls are given as the source filed them. The rule behind the calls is not given here.

How the values were obtained:
[1] = test system: Hep 3B2; test: Cell cycle arrest in human Hep3B cells assessed as accumulation at G0/G1 phase at 10 uM after 48 hrs by propidium iodide staining based flow cytometry (reference value: 39.7 to 40.4%); type: functional
[2] = test system: Hep 3B2; test: Cell cycle arrest in human Hep3B cells assessed as accumulation at G0/G1 phase at 10 uM after 72 hrs by propidium iodide staining based flow cytometry (reference value: 41.6 to 46.2%); type: functional
[3] = test system: Hep 3B2; test: Growth inhibition of human Hep3B cells at 10 uM up to 72 hrs by MTT assay; type: functional, cell-based
[4] = test system: Hep 3B2; test: Cell cycle arrest in human Hep3B cells assessed as accumulation at sub-G1 phase at 40 uM after 48 hrs by propidium iodide staining based flow cytometry (reference value: 1.5 to 6.5%); type: functional
[5] = test system: Hep 3B2; test: Cell cycle arrest in human Hep3B cells assessed as accumulation at G0/G1 phase at 40 uM after 72 hrs by propidium iodide staining based flow cytometry (reference value: 41.6 to 46.2%); type: functional
[6] = test system: Hep 3B2; test: Induction of apoptosis in human Hep3B cells assessed as ratio of cleaved caspase-3 to beta actin level at 40 uM after 72 hrs in presence of curcumin by Western blot analysis; type: functional
[7] = test system: Hep 3B2; test: Cytotoxicity against human Hep3B cells at 20 uM after 24 hrs by MTT assay relative to control; type: functional
[8] = test system: Hep 3B2; test: Induction of autophagy in human Hep3B cells after 48 to 72 hrs by acridine orange staining based flow cytometry; type: functional, cell-based
[9] = test system: Hep 3B2; test: Growth inhibition of human Hep3B cells after 48 hrs by MTT assay; type: functional, cell-based
[10] = test system: Hep 3B2; test: Growth inhibition of human Hep3B cells at 2.5 uM after 48 hrs in presence of curcumin by MTT assay; type: functional
[11] = test system: Hep 3B2; test: Growth inhibition of human Hep3B cells at 5 uM after 48 hrs in presence of curcumin by MTT assay; type: functional
[12] = test system: Hep 3B2; test: Cell cycle arrest in human Hep3B cells assessed as accumulation at G0/G1 phase at 10 uM after 48 hrs in presence of curcumin by propidium iodide staining based flow cytometry (reference value: […] +/- […]%); type: functional
[13] = test system: Hep 3B2; test: Cell cycle arrest in human Hep3B cells assessed as accumulation at S phase at 10 uM after 48 hrs in presence of curcumin by propidium iodide staining based flow cytometry (reference value: 23.8 +/- 1.9%); type: functional
[14] = test system: Hep 3B2; test: Induction of apoptosis in human Hep3B cells assessed as ratio of cleaved caspase-3 to beta actin level at 10 uM after 48 hrs in absence of curcumin by Western blot analysis; type: functional
[15] = test system: Hep 3B2; test: Induction of apoptosis in human Hep3B cells assessed as ratio of cleaved caspase-3 to beta actin level at 10 uM after 48 hrs in presence of curcumin by Western blot analysis; type: functional
[16] = test system: Hep 3B2; test: Induction of autophagy in human Hep3B cells assessed as ratio of LC3-2 to beta-actin level at 10 uM after 48 hrs in absence of curcumin by Western blot analysis; type: functional
[17] = target: Glycogen synthase kinase-3 alpha (Homo sapiens) (UniProt P49840); test: Inhibition of GSK3alpha phosphorylation at Ser21 in human Hep3B cells assessed as ratio of phosphorylated […] to beta-actin level at 10 uM after 48 hrs by Western blot analysis; type: cell-based
[18] = test system: Hep 3B2; test: Up regulation of […] expression in human Hep3B cells at 1 uM after 6 to 24 hrs by L1000 expression profiling method relative to control; type: functional
[19] = test system: Hep 3B2; test: Up regulation of CDCA4 expression in human Hep3B cells at 1 uM after 6 to 24 hrs by L1000 expression profiling method relative to control; type: functional
[20] = test system: Hep 3B2; test: Up regulation of OXA1L expression in human Hep3B cells at 1 uM after 6 to 24 hrs by L1000 expression profiling method relative to control; type: functional
[21] = test system: Hep 3B2; test: Up regulation of CDKN1A expression in human Hep3B cells at 1 uM after 6 to 24 hrs by L1000 expression profiling method relative to control; type: functional
[22] = test system: Hep 3B2; test: Down regulation of SLC27A3 expression in human Hep3B cells at 1 uM after 6 to 24 hrs by L1000 expression profiling method relative to control; type: functional
[23] = test system: Hep 3B2; test: Down regulation of FOS expression in human Hep3B cells at 1 uM after 6 to 24 hrs by L1000 expression profiling method relative to control; type: functional
[24] = test system: Hep 3B2; test: Down regulation of HTRA1 expression in human Hep3B cells at 1 uM after 6 to 24 hrs by L1000 expression profiling method relative to control; type: functional
[25] = test system: Hep 3B2; test: Down regulation of PAPD7 expression in human Hep3B cells at 1 uM after 6 to 24 hrs by L1000 expression profiling method relative to control; type: functional
[26] = test system: Hep 3B2; test: Down regulation of PTPRK expression in human Hep3B cells at 1 uM after 6 to 24 hrs by L1000 expression profiling method relative to control; type: functional
[27] = test system: Hep 3B2; test: Down regulation of UBE2J1 expression in human Hep3B cells at 1 uM after 6 to 24 hrs by L1000 expression profiling method relative to control; type: functional
[28] = test system: Hep 3B2; test: Down regulation of EDN1 expression in human Hep3B cells at 1 uM after 6 to 24 hrs by L1000 expression profiling method relative to control; type: functional
[29] = test system: Hep 3B2; test: Down regulation of PPOX expression in human Hep3B cells at 1 uM after 6 to 24 hrs by L1000 expression profiling method relative to control; type: functional
[30] = test system: Hep 3B2; test: Down regulation of TFAP2A expression in human Hep3B cells at 1 uM after 6 to 24 hrs by L1000 expression profiling method relative to control; type: functional
[31] = test system: Hep 3B2; test: Down regulation of PLEKHM1 expression in human Hep3B cells at 1 uM after 6 to 24 hrs by L1000 expression profiling method relative to control; type: functional
[32] = test system: Hep 3B2; test: Down regulation of TMX2-CTNND1 expression in human Hep3B cells at 1 uM after 6 to 24 hrs by L1000 expression profiling method relative to control; type: functional
[33] = test system: Hep 3B2; test: Down regulation of GNA15 expression in human Hep3B cells at 1 uM after 6 to 24 hrs by L1000 expression profiling method relative to control; type: functional
[34] = test system: Hep 3B2; test: Down regulation of MMP2 expression in human Hep3B cells at 1 uM after 6 to 24 hrs by L1000 expression profiling method relative to control; type: functional
[35] = test system: Hep 3B2; test: Down regulation of SNX7 expression in human Hep3B cells at 1 uM after 6 to 24 hrs by L1000 expression profiling method relative to control; type: functional
[36] = test system: Hep 3B2; test: Down regulation of RTN2 expression in human Hep3B cells at 1 uM after 6 to 24 hrs by L1000 expression profiling method relative to control; type: functional
[37] = test system: Hep 3B2; test: Down regulation of DNMT3A expression in human Hep3B cells at 1 uM after 6 to 24 hrs by L1000 expression profiling method relative to control; type: functional
[38] = test system: Hep 3B2; test: Down regulation of ARNT2 expression in human Hep3B cells at 1 uM after 6 to 24 hrs by L1000 expression profiling method relative to control; type: functional

Chain of Glycogen synthase kinase-3 alpha (Homo sapiens) (P49840 2-483 limits assumed): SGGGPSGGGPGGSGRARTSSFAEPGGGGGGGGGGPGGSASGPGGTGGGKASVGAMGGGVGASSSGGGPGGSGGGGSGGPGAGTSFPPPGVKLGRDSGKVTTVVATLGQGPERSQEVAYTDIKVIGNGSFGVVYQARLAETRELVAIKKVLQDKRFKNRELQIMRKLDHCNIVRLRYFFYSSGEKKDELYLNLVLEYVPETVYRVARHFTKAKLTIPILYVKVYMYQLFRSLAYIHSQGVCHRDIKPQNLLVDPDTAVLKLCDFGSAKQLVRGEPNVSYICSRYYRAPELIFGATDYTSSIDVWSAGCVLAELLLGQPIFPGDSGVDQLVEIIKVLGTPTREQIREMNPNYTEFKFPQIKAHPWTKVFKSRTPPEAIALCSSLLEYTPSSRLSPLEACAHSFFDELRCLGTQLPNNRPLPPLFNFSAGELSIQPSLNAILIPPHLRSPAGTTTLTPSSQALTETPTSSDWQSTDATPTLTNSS

COc1ccc(CNC(=O)Nc2ncc([N+](=O)[O-])s2)cc1
Activity [1]: 39.4% | Activity [2]: 43.3% | growth inhibition (GI) [3]: Active | Activity [4]: 8.9% | Activity [5]: 38.5% | Ratio [6]: 1.1

O=C1COc2ccccc2N1Cc1cn(CCC2OCCO2)nn1
Activity [7]: 24.1% | Activity [8]: Dose-dependent effect | growth inhibition (GI) [9]: Dose-dependent effect | CI [10]: 0.96 | CI [11]: 0.92 | Activity [12]: 24.8% | Activity [13]: 8.8% | Ratio [14]: 2.8 | Ratio [15]: 1.4 | Ratio [16]: 2.2 | Ratio [17]: 0.9 | log2FC [18]: 3.5557 | log2FC [19]: 3.2705 | log2FC [20]: 3.2193 | log2FC [21]: 3.0523 | log2FC [22]: -3.1535 | log2FC [23]: -3.1627 | log2FC [24]: -3.2036 | log2FC [25]: -3.2796 | log2FC [26]: -3.3276 | log2FC [27]: -3.3451 | log2FC [28]: -3.5482 | log2FC [29]: -3.7552 | log2FC [30]: -3.78 | log2FC [31]: -3.9025 | log2FC [32]: -3.9071 | log2FC [33]: -4.0259 | log2FC [34]: -4.0779 | log2FC [35]: -4.1511 | log2FC [36]: -4.1606 | log2FC [37]: -4.2565 | log2FC [38]: -5.0177
